Data on 38 compounds can be found in paper PMC6728359, “Crystal structure and chemical inhibition of essential schistosome host-interactive virulence factor carbonic anhydrase SmCA” (Communications Biology, 2019).

Where two headings read alike, the source gives them in different places.

Assay [1] has as its target rSmCA (recombinant SmCA, α-carbonic anhydrase) (Schistosoma mansoni, UniProt A0A3Q0KSG2). Description: biochemical. The class given is biochemical.
Assay [2] addresses recombinant human isoform hCA II. The following applies: cited from earlier work.
The target in assay [3] is recombinant human isoform hCA I. As to conditions: cited from earlier work.

Sequence of rSmCA (recombinant SmCA, α-carbonic anhydrase) (A0A3Q0KSG2 21-298 limits assumed): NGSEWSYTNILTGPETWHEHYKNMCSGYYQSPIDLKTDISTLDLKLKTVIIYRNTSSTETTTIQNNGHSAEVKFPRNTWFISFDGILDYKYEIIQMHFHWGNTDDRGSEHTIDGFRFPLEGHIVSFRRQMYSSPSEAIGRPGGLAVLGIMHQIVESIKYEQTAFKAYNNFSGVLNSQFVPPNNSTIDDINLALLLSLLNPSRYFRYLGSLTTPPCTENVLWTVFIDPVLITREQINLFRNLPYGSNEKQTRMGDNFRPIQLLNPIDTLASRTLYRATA

In general, Ki refers to the dissociation constant of the complex between target and ligand, obtained from inhibition or displacement. As for `O=[Se](=O)(O)O` [SeO4^2−], the Ki in assay [1] (read-out: Ki SmCA) amounted to 6.33 mM. The same measure, in the same setting: then `[O]=[Re](=[O])(=[O])[OH]` [ReO4^−], with 8.75 mM. Consider `CC(=O)/N=c1/sc(S(N)(=O)=O)nn1C` [MZA, methazolamide], for which the Ki in assay [1] was determined as 3.89e-05 mM. As for `N#CO` [CNO^−, cyanate], the Ki in assay [1] (read-out: Ki SmCA) turned out to be 4.18 mM. Same read-out and setting: the figure for `N#CS` [SCN−, thiocyanate] is 3.15 mM; for `[O-][Cl+3]([O-])([O-])O` [ClO4^−, perchlorate] it is > 100 mM. With `[Br-].[K+]` [Br−, bromide], the inhibition constant Ki in assay [1] (read-out: Ki SmCA) was 9.35 mM; in assay [2], 63 mM; in assay [3] it was 4 mM. Take `NS(=O)(=O)c1ccc(N2CCCCS2(=O)=O)cc1` [SLT, sulthiame]: the Ki in assay [1] was found to be 0.00356 mM. Same read-out and setting: then `NS(=O)(=O)c1cc2c(cc1Cl)NCNS2(=O)=O` [HCT, hydrochlorothiazide], with 0.000399 mM; and `Cc1onc(-c2ccccc2)c1-c1ccc(S(N)(=O)=O)cc1` [VLX, valdecoxib], with 0.000431 mM. For the compound `O=[Te](=O)(O)O` [TeO4^2−], the Ki is > 100 mM in assay [1] (read-out: Ki SmCA) and 0.66 mM in assay [3]. Regarding `O=S(O)O` [HSO3^−], the Ki in assay [1] (read-out: Ki SmCA) is > 100 mM; in assay [3], 18 mM. Turning to `NS(=O)(=O)c1nnc(NS(=O)(=O)c2ccccc2)s1` [BZA, benzolamide], the Ki in assay [1] is 3.41e-05 mM. For the compound `F` [F^−, fluoride], the Ki in assay [1] (read-out: Ki SmCA) worked out at 6.44 mM. As for `N#C[SeH]` [SeCN^−], the figures for the inhibitory constant (Ki) in assay [1] (read-out: Ki SmCA) and in assay [3] were 2.16 mM and 0.085 mM, respectively. On to `O=C(O)O` [HCO3−], for which, in assay [1] (read-out: Ki SmCA), the Ki was determined as 5.1 mM. The same measure, in the same setting: then `[O]=[Sn]([OH])[OH]` [SnO3^2−], with 4.11 mM. As for `S` [HS^−, hydrosulfide], the Ki was 5.96 mM in assay [1] (read-out: Ki SmCA) and 0.0006 mM in assay [3]. As for `O=C1NS(=O)(=O)c2ccccc21` [SAC, saccharin], the inhibition constant Ki in assay [1] was > 0.05 mM; in assay [3] (read-out: Ki hCAI), 0.0185 mM. S2O8^2−: the Ki in assay [1] (read-out: Ki SmCA) came out at 7.85 mM.

As for SO4^2−, the inhibitory constant (Ki) in assay [1] (read-out: Ki SmCA) was determined as 6.86 mM. For the compound `NS(=O)(=O)Cc1noc2ccccc12` [ZNS, zonisamide], the inhibition constant (Ki) in assay [1] came out at 0.000937 mM. As to OsO5^2−, the Ki in assay [1] (read-out: Ki SmCA) came to 7.55 mM. The same measure, in the same setting: then `[N-]=[N+]=[N-]` [N3^−, azide], with 2.43 mM; and CF3SO3^−, with 5.62 mM. With `CCN[C@H]1CN(CCCOC)S(=O)(=O)c2sc(S(N)(=O)=O)cc21` [BRZ, brinzolamide], the Ki in assay [1] came to 4.66e-05 mM. For the compound P2O7^4−, the inhibition constant (Ki) in assay [1] (read-out: Ki SmCA) was > 100 mM; in assay [3], 25.8 mM. Take `[O]=[Ru](=[O])(=[O])=[O]` [RuO4^−]: the Ki in assay [1] (read-out: Ki SmCA) turned out to be 2.07 mM. With `O=[N+]([O-])O` [NO3−, nitrate], the inhibitory constant (Ki) in assay [1] (read-out: Ki SmCA) was 7.87 mM; in assay [3], 7 mM.

Consider CS3^2−, for which the Ki was 6.16 mM in assay [1] (read-out: Ki SmCA) and 0.0087 mM in assay [3].

Turning to `NS(N)(=O)=O` [H 2 NSO 2 NH 2, sulfamide], in assay [1], the “greater potency over SmCA versus hCA I” value came out at 44 fold and the “greater potency over SmCA versus hCA II” value is given as 161 fold. Moreover, in assay [1] (read-out: Ki SmCA), the Ki worked out at 0.007 mM. Take `I` [I^−, iodide]: the Ki in assay [1] (read-out: Ki SmCA) is 5.11 mM; in assay [3], 0.3 mM. For the compound `NS(=O)(=O)c1ccc(S(=O)(=O)Nc2cccc3c(Cl)c[nH]c23)cc1` [IND, indisulam], the inhibitory constant (Ki) in assay [1] was found to be 3.65e-05 mM.

In the case of `CC1(C)O[C@@H]2[C@@H](CO[C@@]3(COS(N)(=O)=O)OC(C)(C)O[C@@H]23)O1` [TPM, topiramate], the results for the Ki in assay [1] and in assay [2] (read-out: Ki hCAII) were 0.000568 mM and 1e-05 mM, respectively. As for `OB(O)c1ccccc1` [Ph-B(OH) 2, phenylboronic acid], in assay [1], the inhibition constant (Ki) came to 0.02 mM and the “higher affinity for SmCA versus human isoforms hCA I or hCA II” value is > 1000 fold. Also, in assay [3], the inhibition constant (Ki) is 58.6 mM. As for `O=[As](O)(O)c1ccccc1` [Ph-AsO 3 H 2, phenylarsonic acid], the inhibition constant (Ki) is 49.2 mM in assay [2] and 31.7 mM in assay [3].

Regarding `CCN(CC)C(=S)S` [Et2NCS2^−], the Ki is 0.59 mM in assay [1] (read-out: Ki SmCA), 0.0031 mM in assay [2] and 0.0008 mM in assay [3]. As to `O=S(=O)(O)F` [FSO3^−], the Ki in assay [1] (read-out: Ki SmCA) was 6.02 mM.
